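48-hour exposure; five concentrations; linearly interpolated endpoints. At the GI50, growth is halved. TGI denotes the concentration required for complete inhibition of growth.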
Columns and labels:
Experiment in all cases: DTP human tumour cell line panel, 48 h
SK-MEL-2 melanoma = test system: SK-MEL-2 melanoma
HT29 colon = test system: HT29 colon
OVCAR-3 ovarian = test system: OVCAR-3 ovarian
U251 CNS = test system: U251 CNS
SNB-19 CNS = test system: SNB-19 CNS
SF-539 CNS = test system: SF-539 CNS
OVCAR-8 ovarian = test system: OVCAR-8 ovarian
IGROV1 ovarian = test system: IGROV1 ovarian
OVCAR-5 ovarian = test system: OVCAR-5 ovarian
HOP-62 NSCLC = test system: HOP-62 NSCLC
NCI-H23 lung = test system: NCI-H23 lung
SW-620 colon = test system: SW-620 colon
786-0 renal = test system: 786-0 renal
HCC-2998 colon = test system: HCC-2998 colon
MOLT-4 leukemia = test system: MOLT-4 leukemia
DU-145 prostate = test system: DU-145 prostate
NCI-H522 lung = test system: NCI-H522 lung
SK-MEL-28 melanoma = test system: SK-MEL-28 melanoma
BT-549 breast = test system: BT-549 breast
SF-295 CNS = test system: SF-295 CNS
NCI-H226 lung = test system: NCI-H226 lung
A498 renal = test system: A498 renal
A549 NSCLC = test system: A549 NSCLC
M14 melanoma = test system: M14 melanoma
SR leukemia = test system: SR leukemia
RXF 393 renal = test system: RXF 393 renal
MALME-3M melanoma = test system: MALME-3M melanoma
MCF7 breast = test system: MCF7 breast
TK-10 renal = test system: TK-10 renal
HL-60(TB) leukemia = test system: HL-60(TB) leukemia
K-562 leukemia = test system: K-562 leukemia
SK-OV-3 ovarian = test system: SK-OV-3 ovarian
CAKI-1 renal = test system: CAKI-1 renal
RPMI-8226 leukemia = test system: RPMI-8226 leukemia
NCI/ADR-RES ovarian = test system: NCI/ADR-RES ovarian
MDA-MB-231 breast = test system: MDA-MB-231 breast
SNB-75 CNS = test system: SNB-75 CNS
ACHN renal = test system: ACHN renal
UO-31 renal = test system: UO-31 renal
CCRF-CEM leukemia = test system: CCRF-CEM leukemia
SK-MEL-5 melanoma = test system: SK-MEL-5 melanoma
UACC-62 melanoma = test system: UACC-62 melanoma
UACC-257 melanoma = test system: UACC-257 melanoma
T-47D breast = test system: T-47D breast
LOX IMVI melanoma = test system: LOX IMVI melanoma
PC-3 prostate = test system: PC-3 prostate
SF-268 CNS = test system: SF-268 CNS
COLO 205 colon = test system: COLO 205 colon
HOP-92 NSCLC = test system: HOP-92 NSCLC
HCT-15 colon = test system: HCT-15 colon
KM12 colon = test system: KM12 colon
HCT-116 colon = test system: HCT-116 colon
NCI-H460 lung = test system: NCI-H460 lung
OVCAR-4 ovarian = test system: OVCAR-4 ovarian
HS 578T breast = test system: HS 578T breast
MDA-MB-435 = test system: MDA-MB-435
SN12C renal = test system: SN12C renal

Compound: Nc1c(C(=O)c2cccc(C#CCN3CCCCC3)c2)cnn1-c1ccc(F)cc1
- GI50 (SK-MEL-2 melanoma): > 25 µM
- TGI (SK-MEL-2 melanoma): > 25 µM
- GI50 (HT29 colon): > 17.7 µM
- TGI (HT29 colon): > 25 µM
- GI50 (OVCAR-3 ovarian): > 25 µM
- TGI (OVCAR-3 ovarian): > 25 µM
- GI50 (U251 CNS): > 25 µM
- TGI (U251 CNS): > 25 µM
- GI50 (SNB-19 CNS): > 25 µM
- TGI (SNB-19 CNS): > 25 µM
- GI50 (SF-539 CNS): > 25 µM
- TGI (SF-539 CNS): > 25 µM
- GI50 (OVCAR-8 ovarian): > 25 µM
- TGI (OVCAR-8 ovarian): > 25 µM
- GI50 (IGROV1 ovarian): > 25 µM
- TGI (IGROV1 ovarian): > 25 µM
- GI50 (OVCAR-5 ovarian): > 25 µM
- TGI (OVCAR-5 ovarian): > 25 µM
- GI50 (HOP-62 NSCLC): > 25 µM
- TGI (HOP-62 NSCLC): > 25 µM
- GI50 (NCI-H23 lung): > 22.5 µM
- TGI (NCI-H23 lung): > 25 µM
- GI50 (SW-620 colon): > 25 µM
- TGI (SW-620 colon): > 25 µM
- GI50 (786-0 renal): > 25 µM
- TGI (786-0 renal): > 25 µM
- GI50 (HCC-2998 colon): > 25 µM
- TGI (HCC-2998 colon): > 25 µM
- GI50 (MOLT-4 leukemia): 21.2 µM
- TGI (MOLT-4 leukemia): > 25 µM
- GI50 (DU-145 prostate): > 25 µM
- TGI (DU-145 prostate): > 25 µM
- GI50 (NCI-H522 lung): > 18.9 µM
- TGI (NCI-H522 lung): > 25 µM
- GI50 (SK-MEL-28 melanoma): > 25 µM
- TGI (SK-MEL-28 melanoma): > 25 µM
- GI50 (BT-549 breast): > 13.3 µM
- TGI (BT-549 breast): > 25 µM
- GI50 (SF-295 CNS): > 25 µM
- TGI (SF-295 CNS): > 25 µM
- GI50 (NCI-H226 lung): > 23.4 µM
- TGI (NCI-H226 lung): > 25 µM
- GI50 (A498 renal): > 25 µM
- TGI (A498 renal): > 25 µM
- GI50 (A549 NSCLC): > 25 µM
- TGI (A549 NSCLC): > 25 µM
- GI50 (M14 melanoma): > 25 µM
- TGI (M14 melanoma): > 25 µM
- GI50 (SR leukemia): 14.2 µM
- TGI (SR leukemia): > 25 µM
- GI50 (RXF 393 renal): 14 µM
- TGI (RXF 393 renal): > 25 µM
- GI50 (MALME-3M melanoma): > 25 µM
- TGI (MALME-3M melanoma): > 25 µM
- GI50 (MCF7 breast): 19.1 µM
- TGI (MCF7 breast): > 25 µM
- GI50 (TK-10 renal): > 25 µM
- TGI (TK-10 renal): > 25 µM
- GI50 (HL-60(TB) leukemia): 15.9 µM
- TGI (HL-60(TB) leukemia): > 25 µM
- GI50 (K-562 leukemia): 13.1 µM
- TGI (K-562 leukemia): > 25 µM
- GI50 (SK-OV-3 ovarian): > 25 µM
- TGI (SK-OV-3 ovarian): > 25 µM
- GI50 (CAKI-1 renal): > 25 µM
- TGI (CAKI-1 renal): > 25 µM
- GI50 (RPMI-8226 leukemia): > 17 µM
- TGI (RPMI-8226 leukemia): > 25 µM
- GI50 (NCI/ADR-RES ovarian): > 19.9 µM
- TGI (NCI/ADR-RES ovarian): > 25 µM
- GI50 (MDA-MB-231 breast): > 25 µM
- TGI (MDA-MB-231 breast): > 25 µM
- GI50 (SNB-75 CNS): > 25 µM
- TGI (SNB-75 CNS): > 25 µM
- GI50 (ACHN renal): > 19.2 µM
- TGI (ACHN renal): > 25 µM
- GI50 (UO-31 renal): 16.2 µM
- TGI (UO-31 renal): > 25 µM
- GI50 (CCRF-CEM leukemia): > 25 µM
- TGI (CCRF-CEM leukemia): > 25 µM
- GI50 (SK-MEL-5 melanoma): 9.59 µM
- TGI (SK-MEL-5 melanoma): > 25 µM
- GI50 (UACC-62 melanoma): > 25 µM
- TGI (UACC-62 melanoma): > 25 µM
- GI50 (UACC-257 melanoma): > 24.1 µM
- TGI (UACC-257 melanoma): > 25 µM
- GI50 (T-47D breast): 11.3 µM
- TGI (T-47D breast): > 25 µM
- GI50 (LOX IMVI melanoma): > 25 µM
- TGI (LOX IMVI melanoma): > 25 µM
- GI50 (PC-3 prostate): > 25 µM
- TGI (PC-3 prostate): > 25 µM
- GI50 (SF-268 CNS): > 25 µM
- TGI (SF-268 CNS): > 25 µM
- GI50 (COLO 205 colon): 24.9 µM
- TGI (COLO 205 colon): > 25 µM
- GI50 (HOP-92 NSCLC): 10.3 µM
- TGI (HOP-92 NSCLC): > 25 µM
- GI50 (HCT-15 colon): > 22.5 µM
- TGI (HCT-15 colon): > 25 µM
- GI50 (KM12 colon): 18.7 µM
- TGI (KM12 colon): > 25 µM
- GI50 (HCT-116 colon): > 17.7 µM
- TGI (HCT-116 colon): > 25 µM
- GI50 (NCI-H460 lung): > 25 µM
- TGI (NCI-H460 lung): > 25 µM
- GI50 (OVCAR-4 ovarian): > 22.6 µM
- TGI (OVCAR-4 ovarian): > 25 µM
- GI50 (HS 578T breast): > 25 µM
- TGI (HS 578T breast): > 25 µM
- GI50 (MDA-MB-435): 15.3 µM
- TGI (MDA-MB-435): > 25 µM
- GI50 (SN12C renal): 24.4 µM
- TGI (SN12C renal): > 25 µM

Source: PubChem BioAssay (NCI)
